# Test results as given in PubChem BioAssay (NCI).
#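 Five compound concentrations were applied to cells in 96-well plates for 48 hours; endpoints were derived by simple linear interpolation of the resulting dose-response curve. GI50 marks 50% less growth. TGI is the concentration that stops growth completely.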
# Legend:
# Test in all cases: DTP human tumour cell line panel, 48 h
# [1] = test system: 786-0 renal
# [2] = test system: A498 renal
# [3] = test system: A549 NSCLC
# [4] = test system: ACHN renal
# [5] = test system: BT-549 breast
# [6] = test system: CAKI-1 renal
# [7] = test system: CCRF-CEM leukemia
# [8] = test system: COLO 205 colon
# [9] = test system: DU-145 prostate
# [10] = test system: EKVX NSCLC
# [11] = test system: HCC-2998 colon
# [12] = test system: HCT-116 colon
# [13] = test system: HCT-15 colon
# [14] = test system: HL-60(TB) leukemia
# [15] = test system: HOP-62 NSCLC
# [16] = test system: HOP-92 NSCLC
# [17] = test system: HS 578T breast
# [18] = test system: HT29 colon
# [19] = test system: IGROV1 ovarian
# [20] = test system: K-562 leukemia
# [21] = test system: KM12 colon
# [22] = test system: LOX IMVI melanoma
# [23] = test system: M14 melanoma
# [24] = test system: MALME-3M melanoma
# [25] = test system: MCF7 breast
# [26] = test system: MDA-MB-231 breast
# [27] = test system: MDA-MB-435
# [28] = test system: MDA-N
# [29] = test system: MOLT-4 leukemia
# [30] = test system: NCI-H226 lung
# [31] = test system: NCI-H23 lung
# [32] = test system: NCI-H460 lung
# [33] = test system: NCI-H522 lung
# [34] = test system: NCI/ADR-RES ovarian
# [35] = test system: OVCAR-3 ovarian
# [36] = test system: OVCAR-4 ovarian
# [37] = test system: OVCAR-5 ovarian
# [38] = test system: OVCAR-8 ovarian
# [39] = test system: PC-3 prostate
# [40] = test system: RPMI-8226 leukemia
# [41] = test system: RXF 393 renal
# [42] = test system: SF-268 CNS
# [43] = test system: SF-295 CNS
# [44] = test system: SF-539 CNS
# [45] = test system: SK-MEL-2 melanoma
# [46] = test system: SK-MEL-28 melanoma
# [47] = test system: SK-MEL-5 melanoma
# [48] = test system: SK-OV-3 ovarian
# [49] = test system: SN12C renal
# [50] = test system: SNB-19 CNS
# [51] = test system: SNB-75 CNS
# [52] = test system: SR leukemia
# [53] = test system: SW-620 colon
# [54] = test system: T-47D breast
# [55] = test system: TK-10 renal
# [56] = test system: U251 CNS
# [57] = test system: UACC-257 melanoma
# [58] = test system: UACC-62 melanoma
# [59] = test system: UO-31 renal
structure (smiles),measurement,setting,value
CN1c2ccc(O)c(O)c2-c2cc(O)cc3c2C1CCC3 (centres undefined),TGI,[1],35.5 µM
same,TGI,[2],> 100 µM
same,TGI,[3],> 74.1 µM
same,TGI,[4],31.3 µM
same,TGI,[5],39.8 µM
same,TGI,[6],48.9 µM
same,TGI,[7],9.61 µM
same,TGI,[8],47.5 µM
same,TGI,[9],30.6 µM
same,TGI,[10],46.9 µM
same,TGI,[11],49.1 µM
same,TGI,[12],47.2 µM
same,TGI,[13],59.4 µM
same,TGI,[14],39.2 µM
same,TGI,[15],32.6 µM
same,TGI,[16],33.3 µM
same,TGI,[17],> 72.9 µM
same,TGI,[18],66.2 µM
same,TGI,[19],27.9 µM
same,TGI,[20],40.8 µM
same,TGI,[21],> 61 µM
same,TGI,[22],26.3 µM
same,TGI,[23],34.8 µM
same,TGI,[24],31.3 µM
same,TGI,[25],41.5 µM
same,TGI,[26],> 66.1 µM
same,TGI,[27],31 µM
same,TGI,[28],38.3 µM
same,TGI,[29],35.6 µM
same,TGI,[30],> 60.2 µM
same,TGI,[31],58.3 µM
same,TGI,[32],> 59.5 µM
same,TGI,[33],28.4 µM
same,TGI,[34],> 64.6 µM
same,TGI,[35],19.5 µM
same,TGI,[36],28.4 µM
same,TGI,[37],50.7 µM
same,TGI,[38],65.6 µM
same,TGI,[39],49.2 µM
same,TGI,[40],25.8 µM
same,TGI,[41],24.3 µM
same,TGI,[42],33 µM
same,TGI,[43],> 100 µM
same,TGI,[44],42.2 µM
same,TGI,[45],58.6 µM
same,TGI,[46],48.7 µM
same,TGI,[47],35.5 µM
same,TGI,[48],> 100 µM
same,TGI,[49],51.7 µM
same,TGI,[50],> 100 µM
same,TGI,[51],34.4 µM
same,TGI,[52],24.9 µM
same,TGI,[53],63.5 µM
same,TGI,[54],42.6 µM
same,TGI,[55],32.9 µM
same,TGI,[56],> 65 µM
same,TGI,[57],42.2 µM
same,TGI,[58],32.3 µM
same,TGI,[59],29.6 µM
COc1ccccc1-c1cc(=O)c2c(C)ccnc2[nH]1,GI50,[1],59.9 µM
same,TGI,[1],> 100 µM
same,TGI,[2],85.3 µM
same,TGI,[3],> 100 µM
same,TGI,[4],> 100 µM
same,TGI,[5],44.3 µM
same,TGI,[6],> 100 µM
same,TGI,[7],> 100 µM
same,TGI,[8],69.3 µM
same,TGI,[9],> 100 µM
same,TGI,[10],> 100 µM
same,TGI,[11],> 100 µM
same,GI50,[12],7.58 µM
same,TGI,[12],46.3 µM
same,TGI,[13],> 100 µM
same,GI50,[14],21 µM
same,TGI,[14],83.7 µM
same,TGI,[15],> 100 µM
same,TGI,[16],> 100 µM
same,TGI,[17],61.4 µM
same,TGI,[18],> 100 µM
same,TGI,[19],> 100 µM
same,TGI,[20],> 100 µM
same,TGI,[21],> 100 µM
same,TGI,[22],> 100 µM
same,TGI,[23],> 100 µM
same,TGI,[24],> 100 µM
same,TGI,[25],> 100 µM
same,TGI,[26],> 100 µM
same,GI50,[27],6.52 µM
same,TGI,[27],30.5 µM
same,GI50,[28],8.41 µM
same,TGI,[28],33.1 µM
same,TGI,[29],> 100 µM
same,TGI,[30],98.9 µM
same,TGI,[31],> 100 µM
same,GI50,[32],23.9 µM
same,TGI,[32],> 100 µM
same,TGI,[33],43.7 µM
same,TGI,[34],53.2 µM
same,GI50,[35],12.8 µM
same,TGI,[35],43.1 µM
same,TGI,[36],> 100 µM
same,TGI,[37],> 100 µM
same,TGI,[38],> 100 µM
same,GI50,[39],21 µM
same,TGI,[39],> 100 µM
same,TGI,[40],> 100 µM
same,TGI,[41],> 100 µM
same,TGI,[42],> 100 µM
same,GI50,[43],23.7 µM
same,TGI,[43],80.1 µM
same,TGI,[44],> 100 µM
same,TGI,[45],> 100 µM
same,TGI,[46],> 100 µM
same,GI50,[47],22.6 µM
same,TGI,[47],96.6 µM
same,TGI,[48],> 100 µM
same,TGI,[49],> 100 µM
same,TGI,[50],> 100 µM
same,TGI,[51],56.8 µM
same,TGI,[52],64.2 µM
same,TGI,[53],40.7 µM
same,TGI,[54],> 100 µM
same,TGI,[55],> 100 µM
same,GI50,[56],35.3 µM
same,TGI,[56],> 100 µM
same,TGI,[57],> 100 µM
same,TGI,[58],> 100 µM
same,TGI,[59],> 100 µM
